Marks after values point to notes of the source that are not given here.
Experiments:
[1] = Apparent pKa by direct titration with NaOH; type: physicochemical; settings: aqueous solution, concentration above the minimum aggregation concentration; pH at semi-equivalence point
Description: In order to determine the ionization state of these gemini surfactants at the pH used to investigate their biological properties, the apparent acid pKa was determined for each of them. The pKap value has been determined by means of a direct titration with NaOH of an aqueous solution of each compound. The surfactant concentrations used were in all cases higher than the minimum aggregation concentration, thus avoiding possible deviations in the pK value due to the monomer–aggregate balance. The pKap values can be estimated from the pH at the semi-equivalence point that is reached when the molar ratio of protonated and non-protonated species is 1:1. In these conditions, we have that the pH = pKa.
The pKa value of each compound has been determined by means of a direct titration with NaOH of an aqueous solution of each compound. The pH was measured using the pH electrode Thermo Electron Corporation ORION 8103SC and the temperature was controlled by a thermostatic bath, Heto CBN 8-30. The pKa values can be estimated from the pH at the semi-equivalence point, which contains a 1:1 molar ratio of protonated and non-protonated species; at this point, pH = pKap.

[2] = test system: Pseudomonas aeruginosa PAO1 biofilm; assay: Biofilm eradication, crystal violet; type: cell-based; settings: P. aeruginosa PAO1, at 32 μg/mL
Description: (§1) The ability of these geminis to disperse and eradicate biofilms once formed on the propylene surfaces of the microtiter plates was evaluated using the same bacterial strains. […] The susceptibility of both biofilms against the tested surfactants was similar. At a low concentration of 32 μg/mL, C3(CA)2 and C3(LA)2 were able to eradicate around 60–70% of preformed biofilm; however, at this concentration, the […] hydrophobic compound, C3(OA)2, eradicated less than 30% of biofilm. At high concentrations, the eradication percentage is similar for all alkyl chains. […] In this case, at low concentrations, there is not a clear dependence between the antibiofilm properties and the spacer; however, at a high concentration, the best effectivity was obtained for the longer spacer chains.
(§2) Antibiofilm activity was assessed against biofilm-producing strains of methicillin-resistant Staphylococcus aureus (MRSA) ATCC 43300 and Pseudomonas aeruginosa PAO1. Biofilm inhibition and eradication capacities of the gemini surfactants were evaluated against adherent bacterial biofilms grown in 96-well microtiter plates. Bacteria were grown overnight in tryptic soy agar at 37 °C for 24 h. The bacteria were suspended in lysogeny broth with glucose (1%) at 1.5 × 10^8 CFU/mL.
(§3) Biofilm eradication procedure: For mature biofilm formation, 200 μL of the diluted bacterial suspension was added to each well in a 96-well microplate and incubated at 37 °C for 24 h. The wells were gently rinsed with phosphate-buffered saline (PBS) and 200 μL of the corresponding gemini surfactant solution was added to each well and incubated again at 37 °C for 24 h. Two-fold serial dilutions of the gemini surfactant were used (4–128 μg/mL). After the plates were air dried, the biofilms were stained with 50 μL of 0.1 of % crystal violet for 25 min. The plates were rinsed with water and then 150 μL of 96% ethanol containing 10% acetic acid was added to all 96-well plates to dissolve the remaining crystal violet-stained biofilm. The absorbance value was recorded at 570 nm. Each assay was conducted at least three times and the results were averaged.

[3] = test system: methicillin-resistant Staphylococcus aureus (MRSA) ATCC 43300 biofilm; assay: Biofilm eradication, crystal violet; type: cell-based; settings: at 32 μg/mL
Description: as §1, §2, §3

[4] = Cell viability, NRU assay; type: cell-based, human; settings: human, HaCaT cells (immortal human keratinocytes); NRU, HaCaT, surfactant in solution at 35.6 µg/mL, 24 h; read-out: cellular viability
Description: (§4) The immortal human keratinocyte (HaCaT) and the squamous cell carcinoma (A431) were obtained from Celltec, University of Barcelona. The cells were grown in DMEM medium (4.5 g/L glucose) supplemented with 10% (v/v) FBS, 2 mM L-glutamine, 100 U/mL of penicillin and 100 μg/mL of streptomycin at 37 °C under 5% CO2. Cells were routinely cultured in 75 cm^2 culture flasks and were trypsinized using trypsin-EDTA when reached approximately 80% of confluence.
(§5) HaCaT cells (1 × 10^5 cells/mL) and A431 cells (5 × 10^4 cells/mL) were grown at the defined densities into the central 60 wells of a 96-well microplate. Cells were incubated for 24 h under 5% CO2 at 37 °C. The medium was then removed and the cells were incubated with the surfactants (100 μL), previously diluted 1:1 (v/v), reaching a concentration of […] in DMEM medium supplemented with 5% FBS using two different colorimetric methods for quantification, as follows.
(§6) The accumulation of the neutral red dye in the lysosomes of viable, undamaged cells constitutes the basis of the neutral red uptake (NRU) assay. After the cells were incubated for 24 h with the corresponding systems at 35.6 µg/mL, the medium was removed and the surfactants´ solutions were incubated for 3 h with the NRU dye solution (50 μg/mL) dissolved in the medium without FBS and phenol red (Lonza). Cells were then washed with sterile PBS, followed by the addition of 100 μL of a solution containing 50% ethanol absolute and 1% acetic acid in distilled water to extract the non-adhered dye. The microplates were then stirred for 5 min at 25 °C to promote the dissolution. Finally, the absorbance of the resulting solutions was measured at λ = 550 nm using a Bio-Rad 550 microplate reader (Hercules, CA, USA).

[5] = test system: immortal human keratinocytes (HaCaT); assay: Cell viability, NRU assay; type: cell-based
Description: as §4, §5, §6

[6] = set-up: method as in doi:10.1021/la981295l; settings: cited from earlier work

Which pKap [1] does the source give for `CCCCCCCCCCCC(=O)NC(CCCNC(=N)N)C(=O)NCCCNC(=O)C(CCCNC(=N)N)NC(=O)CCCCCCCCCCC` (stereo not drawn) [C3(LA)2, Bis (N^α-lauroyl arginine 1,3-propane) diamide] here?
Its pKap is 11.4.

What about the preformed biofilm eradicated [2] of the same compound?
The preformed biofilm eradicated was 60–70%.

What about the preformed biofilm eradicated [3] of the same compound?
Its preformed biofilm eradicated is 60–70%.

What about the viability at 24 h, 35.6 µg/mL [4] of the same compound?
Its viability at 24 h, 35.6 µg/mL is 66.2%.

And the IC50 ([5]; Homo sapiens, NRU method, HaCaT, above the highest tested concentration)?
Its IC50 is > 35.6 µg/mL.

What about the “therapeutic index (TI), IC50/MIC ratio” value ([5]; NRU, HaCaT IC50 versus MIC against the Gram-positive bacteria, E. coli and PA01) of the same compound?
Its value is “higher than one”.

What about the “CMC (mM) Conductivity” value [6] of the same compound?
Its value is 0.5 * mM.

— PMC10536132, “Arginine Gemini-Based Surfactants for Antimicrobial and Antibiofilm Applications: Molecular Interactions, Skin-Related Anti-Enzymatic Activity and Cytotoxicity” (Molecules, 2023)
